The structures appear in SMILES notation.

The conditions of the first data set: patients; cited from earlier work.
As to `Cc1nc(Nc2ncc(C(=O)Nc3c(C)cccc3Cl)s2)cc(N2CCN(CCO)CC2)n1` [Dasatinib], the adverse effects entry was “hematologic toxicity and edema”.

Conditions in the next data set: not given
As for `CCN1CCC(COc2cc3ncc(C#N)c(Nc4cc(OC)c(Cl)cc4Cl)c3cc2OC)CC1` [Example 9, 4-[(2,4-Dichloro-5-methoxyphenyl)amino]-7-[(1-ethylpiperidin-4-yl)methoxy]-6-methoxyquinoline-3-carbonitrile], the melting point fell in the range of 192 to 195 °C. On to `CCOc1cc2c(Nc3cc(OC)c(Cl)cc3Cl)c(C#N)cnc2cc1OCCCN1CCN(C)CC1` [Example 10, 4-[(2,4-Dichloro-5-methoxyphenyl)amino]-6-ethoxy-7-[3-(4-methylpiperazin-1-yl)propoxy]quinoline-3-carbonitrile], for which the melting point lay within 137 to 138 °C. As for `CCOc1cc2c(Nc3cc(OC)c(Cl)cc3Cl)c(C#N)cnc2cc1OCCC1CCN(C)CC1` [Example 15, 4-[(2,4-Dichloro-5-methoxyphenyl)amino]-6-ethoxy-7-[2-(1-methylpiperidin-4-yl)ethoxy]quinoline-3-carbonitrile], the melting point lay in the range of 174 to 176 °C. Still for that read-out and setting: the figure for `CCOc1cc2c(Nc3cc(OC)c(Cl)cc3Cl)c(C#N)cnc2cc1OCCN1CCN(C)CC1` [Example 14, 4-[(2,4-Dichloro-5-methoxyphenyl)amino]-6-ethoxy-7-[2-(4-methyl-1-piperazinyl)ethoxy]quinoline-3-carbonitrile] is 141 to 143 °C; for `CCOc1cc2c(Nc3cc(OC)c(Cl)cc3Cl)c(C#N)cnc2cc1OCCCN1CCN(CC)CC1` [Example 12, 4-[(2,4-Dichloro-5-methoxyphenyl)amino]-6-ethoxy-7-[3-(4-ethylpiperazin-1-yl)propoxy]quinoline-3-carbonitrile] it is 127 to 130 °C; for `CCOc1cc2c(Nc3cc(OC)c(Cl)cc3Cl)c(C#N)cnc2cc1OCCCC1CCN(C)CC1` [Example 13, 4-[(2,4-Dichloro-5-methoxyphenyl)amino]-6-ethoxy-7-[3-(1-methylpiperidin-4-yl)propoxy]quinoline-3-carbonitrile] it is 148 to 151 °C.

The compound `COc1cc(Nc2c(C#N)cnc3cc(OCCN4CCN(C)CC4)c(OC)cc23)c(Cl)cc1Cl` [Example 4, 4-[(2,4-Dichloro-5-methoxyphenyl)amino]-6-methoxy-7-[2-(4-methyl-1-piperazinyl)ethoxy]-3-quinolinecarbonitrile] came in with a melting point of 165 to 167 °C.

For orientation: melting point means the temperature, or range, at which the solid turns liquid.

The values are drawn from patent publication US11103497B2, “Treatment of imatinib resistant leukemia” (Wyeth LLC, priority 2007, dated 2021).
